# Laboratory results taken from ChEMBL document CHEMBL5252612, “A novel selective estrogen receptor degrader induces cell cycle arrest in breast cancer via ERα degradation and the autophagy-lysosome pathway” (Bioorg Med Chem, 2023).
# Active and inactive are the calls of the source. The rule behind the calls is not given here.
# What was measured:
# [1] = system: T47D; test: Induction of apoptosis and necrosis in human T47D cells incubated for 48 hrs by AnnexinV-FITC/PI staining based flow cytometry (reference value: 3.73%); type: functional
# [2] = system: T47D; test: Induction of cell cycle arrest in human T47D cells assessed as proportion of cells at G1 phase at 1 uM incubated for 24 hrs by flow cytometry (reference value: 66.6%); type: functional
# [3] = Induction of cell cycle arrest in tamoxifen-resistant human LCC2 cells assessed as proportion of cells at S phase at 5 uM by flow cytometry (reference value: 28.4%); type: functional
# [4] = system: T47D; test: Downregulation of ER-alpha mRNA expression in human T47D cells by RT-qPCR analysis; type: functional, cell-based
# [5] = system: T47D; test: Anticancer activity against ER-alpha positive human T47D cells assessed as reduction in cell viability measured after 48 hrs by CCK8 assay; type: functional, cell-based
# [6] = system: T47D; test: Induction of cell cycle arrest in human T47D cells assessed as proportion of cells at G2 phase at 10 uM incubated for 24 hrs by flow cytometry (reference value: 17%); type: functional
# [7] = system: T47D; test: Induction of autophagy in human T47D cells assessed as increase in LC3 protein expression at 5 to 10 uM incubated for 24 hrs by western blot analysis; type: functional, cell-based; conditions: dose 5-10 µM
# [8] = system: MCF7; test: Anticancer activity against ER-alpha positive human MCF7 cells assessed as reduction in cell viability measured after 48 hrs by CCK8 assay; type: functional, cell-based
# [9] = system: T47D; test: Induction of cell cycle arrest in human T47D cells assessed as proportion of cells at G1 phase at 5 uM incubated for 24 hrs by flow cytometry (reference value: 66.6%); type: functional
# [10] = Induction of cell cycle arrest in tamoxifen-resistant human LCC2 cells assessed as proportion of cells at S phase at 10 uM by flow cytometry (reference value: 28.4%); type: functional
# [11] = Anticancer activity against ER-alpha positive human LCC2 cells assessed as reduction in cell viability measured after 48 hrs by CCK8 assay; type: functional, cell-based; conditions: Homo sapiens, LCC2, 48 h; read-out: IC50
# [12] = system: T47D; test: Induction of autophagy in human T47D cells assessed as downregulation of MYC protein expression at 5 to 10 uM incubated for 24 hrs in presence of autophagy inhibitor, CQ by western blot analysis; type: functional, cell-based; conditions: dose 5-10 µM
# [13] = system: T47D; test: Induction of autophagy in human T47D cells assessed as increase in LC3 puncta formation at 1 to 10 uM incubated for 24 hrs by immunofluorescence assay; type: functional, cell-based; conditions: dose 1-10 µM
# [14] = biological target: T1, Estrogen receptor (Homo sapiens) (UniProt P03372); test: Induction of ER-alpha degradation in tamoxifen-resistant human LCC2 cells assessed as decrease in ER-alpha protein expression at 10 uM by western blot analysis; type: cell-based
# T1 sequence (whole entry): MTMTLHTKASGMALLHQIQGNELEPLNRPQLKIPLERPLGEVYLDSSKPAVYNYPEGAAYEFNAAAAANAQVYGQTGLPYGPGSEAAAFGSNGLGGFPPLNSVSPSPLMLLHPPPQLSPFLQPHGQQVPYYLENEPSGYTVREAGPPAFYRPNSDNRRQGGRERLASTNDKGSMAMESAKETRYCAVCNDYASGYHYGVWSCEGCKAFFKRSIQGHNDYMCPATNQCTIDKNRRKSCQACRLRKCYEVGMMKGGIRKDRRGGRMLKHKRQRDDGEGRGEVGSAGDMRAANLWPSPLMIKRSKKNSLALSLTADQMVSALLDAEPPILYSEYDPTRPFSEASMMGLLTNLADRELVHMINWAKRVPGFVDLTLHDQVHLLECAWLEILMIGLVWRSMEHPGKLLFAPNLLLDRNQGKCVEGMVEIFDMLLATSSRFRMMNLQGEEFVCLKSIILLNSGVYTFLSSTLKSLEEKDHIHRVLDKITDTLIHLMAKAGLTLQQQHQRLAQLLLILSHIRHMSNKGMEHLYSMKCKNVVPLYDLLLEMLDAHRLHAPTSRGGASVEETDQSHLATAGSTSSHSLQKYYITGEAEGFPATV
# [15] = system: T47D; test: Induction of cell cycle arrest in human T47D cells transfected with empty vector assessed as proportion of cells at G1 phase at 10 uM incubated for 24 hrs by flow cytometry (reference value: 17.1%); type: functional
# [16] = biological target: T1, Estrogen receptor (Homo sapiens); test: Induction of ER-alpha degradation in human T47D cells assessed as decrease in ER-alpha protein expression in presence of autophagy inhibitor, CQ by western blot analysis; type: cell-based
# [17] = system: T47D; test: Induction of autophagy in human T47D cells overexpressing ESR1 assessed as increase in autophagosome number by measuring LC3 puncta formation by immunofluorescence assay; type: functional, cell-based
# [18] = system: T47D; test: Induction of cell cycle arrest in human T47D cells assessed as proportion of cells at G1 phase at 10 uM incubated for 24 hrs in presence of autophagy inhibitor, 3-MA by flow cytometry (reference value: 58.3%); type: functional
# [19] = system: T47D; test: Induction of autophagy in human T47D cells overexpressing ESR1 assessed as increase in LC3 protein expression by western blot analysis; type: functional, cell-based
# [20] = system: LCC2; test: Anticancer activity against ER-alpha positive human LCC2 cells assessed as reduction in cell viability at 20 uM measured after 48 hrs by CCK8 assay; type: functional, cell-based
# [21] = system: T47D; test: Induction of autophagy in human T47D cells assessed as increase in LC3 puncta formation at 1 to 10 uM incubated for 24 hrs in presence of chloroquine by immunofluorescence assay; type: functional, cell-based; conditions: dose 1-10 µM
smiles,measurement,setting,value
COc1ccc(N(CC(F)(F)F)S(=O)(=O)C2CC3OC2C(c2ccc(OCCN4CCCC4)cc2)=C3c2ccc(O)cc2)cc1 (stereo not drawn),Activity,[1],21.43%
same,Activity,[2],71.1%
same,Activity,[3],13%
same,inhibition,[4],Active
same,Activity,[5],Dose-Dependent Effect
same,IC50,[5],18.1 µM
same,Activity,[6],16.9%
same,Activity,[7],Active
same,Activity,[8],Dose-Dependent Effect
same,IC50,"[8]; MCF7, 48 h",16.4 µM
same,Activity,[9],76.8%
same,Activity,[10],13.4%
same,IC50,[11],10.5 µM
same,Activity,[12],inactive
same,Activity,[13],Active
same,Activity,[14],Active
same,Activity,[15],36%
same,Activity,[16],Active
same,Activity,[17],Active
same,Activity,[18],63.3%
same,Activity,[19],Active
same,Activity,[20],Active
same,Activity,[21],Active
